Measurements from PubChem BioAssay (NCI).
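How tested: cells in 96-well plates exposed to compound for 48 hours at five concentrations. GI50: concentration for 50% inhibition of growth. TGI denotes the concentration required for complete inhibition of growth.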

Columns and labels:
Test in all cases: growth of human tumour cells (NCI), 48 h
[1] = system: SF-268 CNS
[2] = system: NCI-H23 lung
[3] = system: KM12 colon
[4] = system: HCT-15 colon
[5] = system: HCC-2998 colon
[6] = system: RPMI-8226 leukemia
[7] = system: K-562 leukemia
[8] = system: UACC-257 melanoma
[9] = system: M14 melanoma
[10] = system: NCI-H460 lung
[11] = system: SF-539 CNS
[12] = system: COLO 205 colon
[13] = system: MCF7 breast
[14] = system: HOP-62 NSCLC
[15] = system: SNB-75 CNS
[16] = system: OVCAR-3 ovarian
[17] = system: OVCAR-5 ovarian
[18] = system: MDA-MB-435
[19] = system: SK-MEL-5 melanoma
[20] = system: DU-145 prostate
[21] = system: HT29 colon
[22] = system: HCT-116 colon
[23] = system: 786-0 renal
[24] = system: MDA-MB-231 breast
[25] = system: BT-549 breast
[26] = system: UACC-62 melanoma
[27] = system: SF-295 CNS
[28] = system: EKVX NSCLC
[29] = system: LOX IMVI melanoma
[30] = system: T-47D breast
[31] = system: OVCAR-8 ovarian
[32] = system: SK-MEL-28 melanoma
[33] = system: MOLT-4 leukemia
[34] = system: UO-31 renal
[35] = system: ACHN renal
[36] = system: OVCAR-4 ovarian
[37] = system: PC-3 prostate
[38] = system: SN12C renal
[39] = system: SK-OV-3 ovarian
[40] = system: A549 NSCLC
[41] = system: HOP-92 NSCLC
[42] = system: NCI-H226 lung
[43] = system: RXF 393 renal
[44] = system: NCI/ADR-RES ovarian
[45] = system: NCI-H522 lung
[46] = system: CAKI-1 renal
[47] = system: SW-620 colon
[48] = system: SK-MEL-2 melanoma
[49] = system: TK-10 renal
[50] = system: U251 CNS
[51] = system: CCRF-CEM leukemia
[52] = system: HS 578T breast
[53] = system: SNB-19 CNS
[54] = system: IGROV1 ovarian
[55] = system: MALME-3M melanoma
[56] = system: HL-60(TB) leukemia

Cc1c(Sc2ccccc2)[n+](=O)c2cc(Cl)c(Cl)cc2n1[O-]
GI50 [1]: > 100 µM
TGI [1]: > 100 µM
GI50 [2]: 33.2 µM
TGI [2]: > 100 µM
GI50 [3]: > 100 µM
TGI [3]: > 100 µM
GI50 [4]: 53.7 µM
TGI [4]: > 100 µM
GI50 [5]: 34.1 µM
TGI [5]: > 100 µM
GI50 [6]: 51.7 µM
TGI [6]: > 100 µM
GI50 [7]: 2.22 µM
TGI [7]: 11.3 µM
GI50 [8]: 16 µM
TGI [8]: 44.6 µM
GI50 [9]: 46.8 µM
TGI [9]: > 100 µM
GI50 [10]: > 100 µM
TGI [10]: > 100 µM
GI50 [11]: 89.9 µM
TGI [11]: > 100 µM
GI50 [12]: 49 µM
TGI [12]: > 100 µM
GI50 [13]: 38.3 µM
TGI [13]: > 100 µM
GI50 [14]: > 100 µM
TGI [14]: > 100 µM
GI50 [15]: > 100 µM
TGI [15]: > 100 µM
GI50 [16]: 23.3 µM
TGI [16]: 60.4 µM
GI50 [17]: > 100 µM
TGI [17]: > 100 µM
GI50 [18]: 95.6 µM
TGI [18]: > 100 µM
GI50 [19]: 54.1 µM
TGI [19]: > 100 µM
GI50 [20]: 23.4 µM
TGI [20]: 44.8 µM
GI50 [21]: 79.9 µM
TGI [21]: > 100 µM
GI50 [22]: 27.4 µM
TGI [22]: 59.4 µM
GI50 [23]: 22 µM
TGI [23]: 43.4 µM
GI50 [24]: 35.7 µM
TGI [24]: > 100 µM
GI50 [25]: 27.8 µM
TGI [25]: 58.9 µM
GI50 [26]: > 100 µM
TGI [26]: > 100 µM
GI50 [27]: > 100 µM
TGI [27]: > 100 µM
GI50 [28]: > 100 µM
TGI [28]: > 100 µM
GI50 [29]: 18.4 µM
TGI [29]: 36.7 µM
GI50 [30]: 36.2 µM
TGI [30]: > 100 µM
GI50 [31]: 25.6 µM
TGI [31]: > 100 µM
GI50 [32]: > 100 µM
TGI [32]: > 100 µM
GI50 [33]: 15 µM
TGI [33]: 33.3 µM
GI50 [34]: > 100 µM
TGI [34]: > 100 µM
GI50 [35]: 20.5 µM
TGI [35]: 41.6 µM
GI50 [36]: 85.3 µM
TGI [36]: > 100 µM
GI50 [37]: > 100 µM
TGI [37]: > 100 µM
GI50 [38]: > 100 µM
TGI [38]: > 100 µM
GI50 [39]: > 100 µM
TGI [39]: > 100 µM
GI50 [40]: > 100 µM
TGI [40]: > 100 µM
GI50 [41]: 20 µM
TGI [41]: 51.4 µM
GI50 [42]: > 100 µM
TGI [42]: > 100 µM
GI50 [43]: 23.2 µM
TGI [43]: 90.1 µM
GI50 [44]: > 100 µM
TGI [44]: > 100 µM
GI50 [45]: 23.6 µM
TGI [45]: 57.7 µM
GI50 [46]: 42 µM
TGI [46]: > 100 µM
GI50 [47]: 29.5 µM
TGI [47]: 96.1 µM
GI50 [48]: > 100 µM
TGI [48]: > 100 µM
GI50 [49]: 26.1 µM
TGI [49]: 70.6 µM
GI50 [50]: > 100 µM
TGI [50]: > 100 µM
GI50 [51]: 32.8 µM
TGI [51]: > 100 µM
GI50 [52]: > 100 µM
TGI [52]: > 100 µM
GI50 [53]: > 100 µM
TGI [53]: > 100 µM
GI50 [54]: 15.5 µM
TGI [54]: 38 µM

COc1cc2c3c(n(CCCN=[N+]=[N-])c(=O)c2cc1OC)-c1ccc(N(C)C)cc1C3=O
GI50 [1]: > 100 µM
TGI [1]: > 100 µM
GI50 [2]: > 100 µM
TGI [2]: > 100 µM
GI50 [3]: > 100 µM
TGI [3]: > 100 µM
GI50 [4]: > 100 µM
TGI [4]: > 100 µM
GI50 [5]: > 100 µM
TGI [5]: > 100 µM
GI50 [6]: > 100 µM
TGI [6]: > 100 µM
GI50 [7]: > 100 µM
TGI [7]: > 100 µM
GI50 [8]: > 100 µM
TGI [8]: > 100 µM
GI50 [9]: > 100 µM
TGI [9]: > 100 µM
GI50 [10]: > 100 µM
TGI [10]: > 100 µM
GI50 [11]: > 100 µM
TGI [11]: > 100 µM
GI50 [12]: > 100 µM
TGI [12]: > 100 µM
GI50 [13]: > 100 µM
TGI [13]: > 100 µM
GI50 [14]: > 100 µM
TGI [14]: > 100 µM
GI50 [15]: 55.9 µM
TGI [15]: > 100 µM
GI50 [16]: > 100 µM
TGI [16]: > 100 µM
GI50 [55]: > 100 µM
TGI [55]: > 100 µM
GI50 [17]: > 100 µM
TGI [17]: > 100 µM
GI50 [18]: > 100 µM
TGI [18]: > 100 µM
GI50 [19]: 87.1 µM
TGI [19]: > 100 µM
GI50 [20]: > 100 µM
TGI [20]: > 100 µM
GI50 [21]: > 100 µM
TGI [21]: > 100 µM
GI50 [23]: > 100 µM
TGI [23]: > 100 µM
GI50 [24]: > 100 µM
TGI [24]: > 100 µM
GI50 [25]: > 100 µM
TGI [25]: > 100 µM
GI50 [26]: > 100 µM
TGI [26]: > 100 µM
GI50 [27]: > 100 µM
TGI [27]: > 100 µM
GI50 [28]: > 100 µM
TGI [28]: > 100 µM
GI50 [29]: > 100 µM
TGI [29]: > 100 µM
GI50 [30]: > 100 µM
TGI [30]: > 100 µM
GI50 [56]: > 100 µM
TGI [56]: > 100 µM
GI50 [31]: > 100 µM
TGI [31]: > 100 µM
GI50 [32]: > 100 µM
TGI [32]: > 100 µM
GI50 [33]: > 100 µM
TGI [33]: > 100 µM
GI50 [34]: > 100 µM
TGI [34]: > 100 µM
GI50 [35]: > 100 µM
TGI [35]: > 100 µM
GI50 [36]: > 100 µM
TGI [36]: > 100 µM
GI50 [37]: > 100 µM
TGI [37]: > 100 µM
GI50 [38]: > 100 µM
TGI [38]: > 100 µM
GI50 [39]: > 100 µM
TGI [39]: > 100 µM
GI50 [40]: > 100 µM
TGI [40]: > 100 µM
GI50 [41]: > 100 µM
TGI [41]: > 100 µM
GI50 [42]: > 100 µM
TGI [42]: > 100 µM
GI50 [43]: > 100 µM
TGI [43]: > 100 µM
GI50 [44]: > 100 µM
TGI [44]: > 100 µM
GI50 [45]: > 100 µM
TGI [45]: > 100 µM
GI50 [47]: > 100 µM
TGI [47]: > 100 µM
GI50 [48]: > 100 µM
TGI [48]: > 100 µM
GI50 [49]: > 100 µM
TGI [49]: > 100 µM
GI50 [50]: > 100 µM
TGI [50]: > 100 µM
GI50 [51]: > 100 µM
TGI [51]: > 100 µM
GI50 [52]: > 100 µM
TGI [52]: > 100 µM
GI50 [53]: > 100 µM
TGI [53]: > 100 µM
GI50 [54]: > 100 µM
TGI [54]: > 100 µM
